US9757484B2 (Otonomy, Inc., priority 2014, dated 2017)

Columns and labels:
[1] = Loss on drying (form anhydrous/hydrate of ciprofloxacin); assay type: physicochemical; conditions: solid dried 40° C. oven 24 hours, then 125° C. oven one hour; weight loss due to 125° C.
Experimental: To assess the form of ciprofloxacin samples described in the present disclosure, a comparison experiment is conducted to evaluate the sample's loss of weight upon heating. […] The conditions and results of the experiment are summarized below:
Experimental Setup—Loss on Drying: • If suspension: Pipette cipro suspension onto filter on vacuum filter flask • Transfer filter/dry powder to 40° C. oven, hold 24 hours • Transfer solid to pre-weighed aluminum pan and weigh solid • Transfer pan to 125° C. oven, hold one hour • Weigh again and determine weight loss due to 125° C.

[2] = Particle size (D90) of ciprofloxacin; assay type: physicochemical
From the text: The final drug product has particle size of D90 of about 25 μm. […] In some embodiments, it is the use of a lower sterilization temperature and homogenization of the suspension during the sterilization process that contributes to the particle size distribution of ciprofloxacin in the suspension, and in the final product.

Row | SMILES | Weight Loss on Drying [1] [%] | particle size D90 ([2]; listed as Ciprofloxacin free base anhydrous API powder) | particle size D90 ([2]; listed as hydrate form)
1 | O=C(O)c1cn(C2CC2)c2cc(N3CCNCC3)c(F)cc2c1=O [Sample 1, Ciprofloxacin] | 0.1 | under 15 μm | 
2 | O=C(O)c1cn(C2CC2)c2cc(N3CCNCC3)c(F)cc2c1=O [Sample 2, Ciprofloxacin] | 11.1 |  | around 60 μm
